The source of these data is patent US20250019373A1, “ARYL OR HETEROARYL DERIVATIVE, AND PHARMACEUTICAL COMPOSITION COMPRISING SAME AS ACTIVE INGREDIENT FOR PREVENTION OR TREATMENT OF KINASE-RELATED DISEASES” (VORONOI INC., priority 2021, published 2025).

This assay concerns HT-29 cells. The assay can be described thus: Cell necrosis inhibitory activity under necroptosis-inducing conditions (TNF-α, Z-VAD-FMK, LCL161) in HT-29 cells, Cell Titer-Glo. In kind it is cell-based. The settings on record: Homo sapiens, 100 ng/mL TNF-α + 25 μM Z-VAD-FMK + Smac mimetic LCL161, 24 hours, cell viability. In short, it runs like this: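 HT-29 cells seeded 24 h, then necroptosis induced with 100 ng/mL TNF-α, 25 μM Z-VAD-FMK and 10 μM LCL161 for 10 min before compound (11 points, 3-fold, top 0.1 or 1 μM; 0.05% DMSO). After 24 h, viability by CellTiter-Glo luminescence relative to untreated controls gave EC50 (nM).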
Background: ATP-based viability assays read luminescence as a measure of living cells.
A word on the EC50: it is the concentration giving half of the maximal effect. Consider `Cc1ccc(-c2ccc3nc(N)nn3c2)cc1NC(=O)N1OCC[C@H]1c1ccc(F)cc1` [Example 66, (S)-N-(5-(2-amino-[1,2,4]triazolo[1,5-a]pyridin-6-yl)-2-methylphenyl)-3-(4-fluorophenyl)isoxazolidine-2-carboxamide], for which the EC50 was 0.4 nM.

Regarding `COc1ncc(-c2csc3c(N)ncnc23)cc1NC(=O)N1OCC[C@H]1c1ccccc1` [Example 128, (S)-N-(5-(4-aminothieno[3,2-d]pyrimidine-7-yl)-2-methoxypyridin-3-yl)-3-phenylisoxazolidine-2-carboxamide], the EC50 turned out to be 38.2 nM.

Regarding `COc1ccc(-c2ccc3nc(NC(C)=O)cn3n2)cc1NC(=O)N1OCC[C@H]1c1ccccc1` [Example 8, (S)-N-(5-(2-acetamidoimidazo[1,2-b]pyridazin-6-yl)-2-methoxyphenyl)-3-phenylisoxazolidine-2-carboxamide], the EC50 was found to be 0.4 nM.

For `Cc1ncc(-c2ccc3nc(N)nn3c2)cc1NC(=O)N1OCC[C@H]1c1cccc(F)c1` [Example 37, (S)-N-(5-(2-amino-[1,2,4]triazolo[1,5-a]pyridin-6-yl)-2-methylpyridin-3-yl)-3-(3-fluorophenyl)isoxazolidine-2-carboxamide], the EC50 amounted to 1.1 nM.

With `Cc1ccc(-c2ccc3c(N)ncnn23)cc1NC(=O)N1OCC[C@H]1c1ccccc1` [Example 100, (S)-N-(5-(4-aminopyrrolo[2,1-f][1,2,4]triazin-7-yl)-2-methylphenyl)-3-phenylisoxazolidine-2-carboxamide], the EC50 was determined as 4.6 nM.

For the compound `Cc1ccc(-c2ccn3nc(N)nc3c2)cc1NC(=O)N1OCC[C@H]1c1ccc(Cl)cc1` [Example 65, (S)-N-(5-(2-amino-[1,2,4]triazolo[1,5-a]pyridin-7-yl)-2-methylphenyl)-3-(4-chlorophenyl)isoxazolidine-2-carboxamide], the EC50 was found to be 0.2 nM.

On to `Cc1ccc(-c2ccc3ncc(C#CC(C)(C)O)n3n2)cc1NC(=O)N1OCC[C@H]1c1ccccc1` [Example 117, (S)-N-(5-(3-(3-hydroxy-3-methylbut-1-yn-1-yl)imidazo[1,2-b]pyridazin-6-yl)-2-methylphenyl)-3-phenylisoxazolidine-2-carboxamide], for which the EC50 is 2.4 nM.

With `COc1ncc(-c2ccc3nc(NC(C)=O)oc3c2)cc1NC(=O)N1OCC[C@H]1c1ccccc1` [Example 13, (S)-N-(5-(2-acetamidobenzo[d]oxazol-6-yl)-2-methoxypyridin-3-yl)-3-phenylisoxazolidine-2-carboxamide], the EC50 was found to be 2.6 nM.

As to `Cc1ccc(-c2ccc3nc(N)cn3n2)cc1NC(=O)N1OCC[C@H]1c1ccccc1` [Example 95, (S)-N-(5-(2-aminoimidazo[1,2-b]pyridazin-6-yl)-2-methylphenyl)-3-phenylisoxazolidine-2-carboxamide], the EC50 is 7.5 nM.

For `COc1ncc(-c2ccn3nc(N)nc3c2)cc1NC(=O)N1OCC[C@H]1c1cccc(F)c1` [Example 53, (S)-N-(5-(2-amino-[1,2,4]triazolo[1,5-a]pyridin-7-yl)-2-methoxypyridin-3-yl)-3-(3-fluorophenyl)isoxazolidine-2-carboxamide], the EC50 worked out at 0.5 nM.

In the case of `COc1ccc(-c2ccc3nnn(C(C)C)c3c2)cc1NC(=O)N1OCC[C@H]1c1ccccc1` [Example 15, (S)-N-(5-(1-isopropyl-1H-benzo[d][1,2,3]triazol-6-yl)-2-methoxyphenyl)-3-phenylisoxazolidine-2-carboxamide], the half-maximal effective concentration (EC50) was 23.9 nM.

As to `Cc1ncc(-c2ccc3nc(N)nn3c2)cc1NC(=O)N1OCC[C@H]1c1ccc(F)cc1` [Example 56, (S)-N-(5-(2-amino-[1,2,4]triazolo[1,5-a]pyridin-6-yl)-2-methylpyridin-3-yl)-3-(4-fluorophenyl)isoxazolidine-2-carboxamide], the EC50 stood at 0.7 nM.

Take `Cc1ccc(-c2ccn3nc(N)cc3c2)cc1NC(=O)N1Oc2ccccc2[C@H]1c1ccccc1` [Example 139, (R)-N-(5-(2-aminopyrazolo[1,5-a]pyridin-5-yl)-2-methylphenyl)-3-phenylbenzo[d]isoxazole-2(3H)-carboxamide]: the EC50 came to 2.2 nM.

`COc1ccc(-c2ccc3nc(N)nn3c2)cc1NC(=O)N1OCC[C@H]1c1ccccc1` [Example 31, (S)-N-(5-(2-amino-[1,2,4]triazolo[1,5-a]pyridin-6-yl)-2-methoxyphenyl)-3-phenylisoxazolidine-2-carboxamide]: the EC50 was found to be 4.6 nM.

Take `Cc1ncc(-c2ccc3nc(NC(=O)C4CC4)sc3c2)cc1NC(=O)N1OCC[C@H]1c1ccccc1` [Example 29, (S)-N-(5-(2-(cyclopropanecarboxamido)benzo[d]thiazol-6-yl)-2-methylpyridin-3-yl)-3-phenylisoxazolidine-2-carboxamide]: the EC50 was 0.1 nM.

Consider `CNC(=O)c1n[nH]c2cc(-c3cnc(C)c(NC(=O)N4OCC[C@H]4c4ccccc4)c3)ccc12` [Example 21, (S)-N-(2-methyl-5-(3-(methylcarbamoyl)-1H-indazol-6-yl)pyridin-3-yl)-3-phenylisoxazolidine-2-carboxamide], for which the EC50 was found to be 0.4 nM.

For the compound `CC(=O)Nc1nc2ccc(-c3cnc(C)c(NC(=O)N4OCC[C@H]4c4ccccc4)c3)cc2s1` [Example 28, (S)-N-(5-(2-acetamidobenzo[d]thiazol-6-yl)-2-methylpyridin-3-yl)-3-phenylisoxazolidine-2-carboxamide], the EC50 is 0.2 nM.

Turning to `Nc1nc2cc(-c3ccc(F)c(NC(=O)N4OCC[C@H]4c4ccccc4)c3F)ccn2n1` [Example 134, (S)-N-(3-(2-amino-[1,2,4]triazolo[1,5-a]pyridin-7-yl)-2,6-difluorophenyl)-3-phenylisoxazolidine-2-carboxamide], the EC50 was 13 nM.

Take `Nc1nc2ccc(-c3ccc(Cl)c(NC(=O)N4OCC[C@H]4c4ccccc4)c3F)cn2n1` [Example 105, (S)-N-(3-(2-amino-[1,2,4]triazolo[1,5-a]pyridin-6-yl)-6-chloro-2-fluorophenyl)-3-phenylisoxazolidine-2-carboxamide]: the EC50 turned out to be 43.8 nM.

Take `Cc1ccc(-c2ccc3nc(N)nn3c2)cc1NC(=O)N1OCC[C@H]1c1ccc(Cl)cc1` [Example 67, (S)-N-(5-(2-amino-[1,2,4]triazolo[1,5-a]pyridin-6-yl)-2-methylphenyl)-3-(4-chlorophenyl)isoxazolidine-2-carboxamide]: the EC50 came out at 0.4 nM.

`Cc1ncc(-c2ccc3nc(N)nn3c2)cc1NC(=O)N1OCC[C@H]1c1ccc(F)c(F)c1` [Example 55, (S)-N-(5-(2-amino-[1,2,4]triazolo[1,5-a]pyridin-6-yl)-2-methylpyridin-3-yl)-3-(3,4-difluorophenyl)isoxazolidine-2-carboxamide]: the EC50 is 0.6 nM.

As to `Cc1ncc(-c2ccc3nc(N)nn3c2)cc1NC(=O)N1OCC[C@H]1c1ccc(C#N)cc1` [Example 68, (S)-N-(5-(2-amino-[1,2,4]triazolo[1,5-a]pyridin-6-yl)-2-methylpyridin-3-yl)-3-(4-cyanophenyl)isoxazolidine-2-carboxamide], the concentration for a half-maximal effect (EC50) is 3.9 nM.

Regarding `Cc1ncc(-c2ccc3nc(N)nn3c2)cc1NC(=O)N1OCC[C@H]1c1cccc(C(F)(F)F)c1` [Example 41, (S)-N-(5-(2-amino-[1,2,4]triazolo[1,5-a]pyridin-6-yl)-2-methylpyridin-3-yl)-3-(3-(trifluoromethyl)phenyl)isoxazolidine-2-carboxamide], the EC50 was 1 nM.
